Tested on: gene promoters in NT2/D1-R1 control and DNMT3B knockdown cells
Assay: Genome-wide promoter methylation analysis, HumanMethylation27 BeadChip (Table 15)
Assay type: cell-based, human
Conditions: sh-3b + 5aza
Procedure: DNA methylation analysis was performed in samples in triplicate using the […] […] assay with the HumanMethylation27 BeadChip ([…]) and the BeadChip was scanned on the BeadArray Reader ([…]), according to the manufacturer's instructions. Raw data was normalized and analyzed with Genome Studio software ([…]). The HumanMethylation27 BeadChip assays 27,578 CpGs covering more than 14,000 genes, mostly from promoter regions. […] Hierarchical clustering was performed as stated above. HumanMethylation27 BeadChip data and gene expression microarray data were submitted to NCBI GEO.

## Nc1ncn([C@H]2C[C@H](O)[C@@H](CO)O2)c(=O)n1 [5aza]
  SERPING1 cg12783776 promoter methylation Mean: 0.350
  SFRS16 cg19317638 promoter methylation Mean: 0.369
  SFXN3 cg04880063 promoter methylation Mean: 0.188
  SH3BGRL2 cg03080985 promoter methylation Mean: 0.260
  SHH cg25167838 promoter methylation Mean: 0.127
  SKIP cg04072323 promoter methylation Mean: 0.310
  SLC30A2 cg05674944 promoter methylation Mean: 0.337
  SMCP cg09542291 promoter methylation Mean: 0.504
  SNX9 cg26845300 promoter methylation Mean: 0.722
  SOX17 cg21226224 promoter methylation Mean: 0.495
  SPRR1B cg24884084 promoter methylation Mean: 0.334
  SSH1 cg11747499 promoter methylation Mean: 0.292
  SSTR1 cg27590397 promoter methylation Mean: 0.900
  TAC1 cg07550362 promoter methylation Mean: 0.507
  TADA3L cg09279263 promoter methylation Mean: 0.350
  TERT cg02545192 promoter methylation Mean: 0.311
  TNFSF10 cg16555388 promoter methylation Mean: 0.430
  TNRC4 cg26093148 promoter methylation Mean: 0.661
  TNRC15 cg07230446 promoter methylation Mean: 0.243
  TRAF3 cg24165760 promoter methylation Mean: 0.797
  TRIM2 cg12793610 promoter methylation Mean: 0.506
  TRIM36 cg10693071 promoter methylation Mean: 0.545
  TRPM3 cg20555507 promoter methylation Mean: 0.291
  UNC5D cg00297600 promoter methylation Mean: 0.384
  WDR13 cg25053301 promoter methylation Mean: 0.211
  ZFHX1B cg15377518 promoter methylation Mean: 0.472
  ZNF222 cg09757277 promoter methylation Mean: 0.355
  cg07512517 promoter methylation Mean: 0.473
DNMT3B knockdown cells
  Mean promoter methylation, ABCA3 cg02331561: 0.145
  Mean promoter methylation, ABLIM3 cg05026186: 0.240
  Mean promoter methylation, ACTL6B cg08572611: 0.138
  Mean promoter methylation, ANKRD46 cg23737055: 0.257
  Mean promoter methylation, ARNT2 cg17788682: 0.139
  Mean promoter methylation, B4GALNT3 cg05769161: 0.271
  Mean promoter methylation, BTBD1 cg16958189: 0.259
  Mean promoter methylation, C1RL cg22593785: 0.188
  Mean promoter methylation, C10orf10 cg17186163: 0.237
  Mean promoter methylation, C10orf72 cg02569613: 0.312
  Mean promoter methylation, C12orf34 cg01335367: 0.420
  Mean promoter methylation, C17orf40 cg18042079: 0.213
  Mean promoter methylation, C19orf30 cg07456645: 0.254
  Mean promoter methylation, C20orf29 cg09158909: 0.226
  Mean promoter methylation, C22orf9 cg11221513: 0.229
  Mean promoter methylation, CACNA1G cg18454685: 0.286
  Mean promoter methylation, CAMKK2 cg01369981: 0.191
  Mean promoter methylation, CART cg23300372: 0.160
  Mean promoter methylation, CCKBR cg13346411: 0.197
  Mean promoter methylation, CDC42EP1 cg13951472: 0.217
  Mean promoter methylation, CDKN2A cg10895543: 0.168
  Mean promoter methylation, CHST8 cg24739326: 0.319
  Mean promoter methylation, CPSF1 cg20326853: 0.241
  Mean promoter methylation, CSMD1 cg22619018: 0.201
  Mean promoter methylation, DCTN3 cg22579849: 0.325
  Mean promoter methylation, DDX42 cg05797656: 0.192
  Mean promoter methylation, DGKD cg25506396: 0.202
  Mean promoter methylation, DGKI cg06277657: 0.190
  Mean promoter methylation, DKK2 cg01404615: 0.398
  Mean promoter methylation, DUSP8 cg02271621: 0.135
  Mean promoter methylation, EHD2 cg12603043: 0.176
  Mean promoter methylation, ELK1 cg21860846: 0.181
  Mean promoter methylation, EMP3 cg01795122: 0.127
  Mean promoter methylation, EYA4 cg01805282: 0.174
  Mean promoter methylation, FAM70B cg15350194: 0.222
  Mean promoter methylation, FAM73B cg00729541: 0.213
  Mean promoter methylation, FCHSD2 cg17114257: 0.179
  Mean promoter methylation, FLJ20273 cg01704534: 0.222
  Mean promoter methylation, FLJ20273 cg15967525: 0.362
  Mean promoter methylation, FLJ42486 cg03734874: 0.287
  Mean promoter methylation, GAB3 cg12938998: 0.235
  Mean promoter methylation, GALR1 cg04534765: 0.176
  Mean promoter methylation, GCN5L2 cg08434547: 0.249
  Mean promoter methylation, GNAS cg00943909: 0.097
  Mean promoter methylation, HBQ1 cg07703401: 0.220
  Mean promoter methylation, HCN1 cg11285003: 0.202
  Mean promoter methylation, HES6 cg24127874: 0.377
  Mean promoter methylation, HEYL cg25462291: 0.218
  Mean promoter methylation, HRH3 cg08186362: 0.297
  Mean promoter methylation, ICAM1 cg22874046: 0.144
  Mean promoter methylation, ID2 cg23525180: 0.201
  Mean promoter methylation, IGFBP3 cg04796162: 0.230
  Mean promoter methylation, KATNB1 cg15153383: 0.265
  Mean promoter methylation, KCNAB1 cg23873703: 0.334
  Mean promoter methylation, KCNC2 cg18573383: 0.159
  Mean promoter methylation, KIAA1822 cg02867079: 0.345
  Mean promoter methylation, KIAA1840 cg06121469: 0.191
  Mean promoter methylation, KRTCAP2 cg11278262: 0.257
  Mean promoter methylation, LGALS1 cg00292662: 0.230
  Mean promoter methylation, LGR6 cg23578193: 0.187
  Mean promoter methylation, LOX cg06508445: 0.101
  Mean promoter methylation, MAP6D1 cg03705396: 0.201
  Mean promoter methylation, MGC9850 cg21097640: 0.218
  Mean promoter methylation, MRPL38 cg11653266: 0.155
  Mean promoter methylation, MT cg14078309: 0.154
  Mean promoter methylation, MYOD1 cg18555440: 0.321
  Mean promoter methylation, OGG1 cg25415932: 0.240
  Mean promoter methylation, OR10J1 cg25076881: 0.335
  Mean promoter methylation, OSTbeta cg16029760: 0.144
  Mean promoter methylation, PABPC4 cg12585282: 0.221
  Mean promoter methylation, PDE8B cg18089852: 0.130
  Mean promoter methylation, PHLDA2 cg01263716: 0.248
  Mean promoter methylation, PHLDA2 cg04720330: 0.195
  Mean promoter methylation, PIB5PA cg18053607: 0.247
  Mean promoter methylation, PLOD1 cg23286660: 0.235
  Mean promoter methylation, PPCDC cg11632617: 0.269
  Mean promoter methylation, PRDM12 cg09191327: 0.240
  Mean promoter methylation, PRMT8 cg23739862: 0.116
  Mean promoter methylation, PTPRO cg19402885: 0.303
  Mean promoter methylation, PTPRO cg27196745: 0.267
  Mean promoter methylation, R3HDML cg17692403: 0.288
  Mean promoter methylation, RAB37 cg12448933: 0.241
  Mean promoter methylation, RASA4 cg05749161: 0.102
  Mean promoter methylation, RASL11A cg06611744: 0.208
  Mean promoter methylation, SCAMP3 cg01745448: 0.209
  Mean promoter methylation, SCARA5 cg10171125: 0.239
  Mean promoter methylation, SEC14L2 cg14452140: 0.337
  Mean promoter methylation, SH3BGRL3 cg03100146: 0.341
  Mean promoter methylation, SHH cg00577464: 0.212
  Mean promoter methylation, SLC6A5 cg20632573: 0.192
  Mean promoter methylation, SLC25A22 cg02973416: 0.318
  Mean promoter methylation, SLC35C2 cg02413850: 0.155
  Mean promoter methylation, SLIT1 cg07143898: 0.176
  Mean promoter methylation, SORCS3 cg16787600: 0.384
  Mean promoter methylation, SOX15 cg01029592: 0.171
  Mean promoter methylation, SOX15 cg13098960: 0.261
  Mean promoter methylation, SOX17 cg02919422: 0.329
  Mean promoter methylation, STXBP3 cg11666924: 0.194
  Mean promoter methylation, SUSD2 cg23349242: 0.329
  Mean promoter methylation, TBXA2R cg09998229: 0.256
  Mean promoter methylation, THAP3 cg11688219: 0.344
  Mean promoter methylation, TMEM25 cg20001829: 0.238
  Mean promoter methylation, TMEM106C cg25884854: 0.229
  Mean promoter methylation, TRAPPC1 cg01667702: 0.231
  Mean promoter methylation, UBA52 cg24356797: 0.145
  Mean promoter methylation, UNQ2446 cg10574499: 0.218
  Mean promoter methylation, VPREB1 cg18441959: 0.230
  Mean promoter methylation, ZGPAT cg04078896: 0.191
  Mean promoter methylation, ZGPAT cg18611245: 0.379
  Mean promoter methylation, ZNF585B cg03751813: 0.182
  Mean promoter methylation, ZNF702 cg07559730: 0.221

Reference: patent US9476099B2 (TRUSTEES OF DARTMOUTH COLLEGE, priority 2012, dated 2016)
